The numbers were not newly measured in US20110152372A1, “ANHYDROUS PETROLEUM JELLY/ELASTOMER-FREE DEPIGMENTING COMPOSITIONS COMPRISING A SOLUBILIZED PHENOLIC COMPOUND AND A RETINOID” (Galderma Research & Development, priority 2008, published 2011), which cites them from elsewhere.

Read-outs that look alike come from different tables or passages of the source.

Regarding `Oc1ccc(O)cc1` [hydroquinone], the Incidence of irritation entry reads like this: (10% concentrations) “relatively high”; (concentration of 2%) “virtually nonexistent”; (preparations with a 5% dose) “reduces greatly”.
